Where two headings read alike, the source gives them in different places.
Experiments:
[1] = target: human androgen receptor (hAR) (Homo sapiens, UniProt P10275); assay: Functional response test: hAR transactivation (luciferase reporter) in HALP2 cells; format: cell-based
In short: (§1)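 HALP2 cells are HeLa cells stably transfected with CMV-driven hAR and a probasin ARE-luciferase reporter. They were seeded 24 h ahead, then exposed to compounds for 20 hours at 37° C in phenol red-free DMEM with 5% desteroided serum. Luciferase luminescence was measured after lysis; for antagonist mode, compounds were tested against increasing DHT concentrations.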

[2] = test system: castrated immature young rats; assay: Adapted model of Hershberger's test (levator ani and ventral prostate weight); format: in vivo, Sprague Dawley rats; details: Rattus norvegicus, po, 96 h
Procedure: The selective modulating activity of the androgen receptor was tested in a model of castrated immature young rats. This model, which is widely recognised for evaluating the anabolic effects of androgen compounds on the muscles and on the genitalia, has been described by Hershberger et al. 1953 Proc. Soc. Expt. Biol. Med. 83:175.
The method is based on the measurement of the well-known effects of androgens on the growth of the muscles and the accessory male sex organs in animals, and also in men. The consequences of castration appear in the form of a rapid involution and atrophy of the prostate and the seminal vesicles and of the anus-lifting muscle (levator ani). This effect may be completely compensated by an exogeneous administration of androgen, in particular of testosterone. The model is thus used to determine the capacity of the tested molecules to maintain the weight of the accessory sex and muscle organs in immature castrated rats, and therefore their androgenic efficacy.
Immature young Sprague Dawley rats (4 to 5 weeks old) weighing approximately 140-160 g (Charles River, Les Oncins, FRANCE) were distributed randomly in various groups and were kept in an environment at 22±2° C. with an alternating day/night cycle of 12 hours and ad libitum access to food and drink.
On day 0, that is, seven days before commencement of the first treatment, the rats were weighed individually then anaesthetised with an intraperitoneal dose of Ketamine/xylazine (85/15 mg/kg, approximately 2 ml/kg). Each animal was then placed on a sterile field and the abdomen and the scrotum were disinfected with Betadine and 70% alcohol. In the case of the orchidectomised control animals (ORX), the testicles were removed via an incision in the middle of the scrotum. A sterile suture was then made to ligature the supra-testicular portion of the tissue prior to surgical section of each testicle. The groups of animals to be treated by the tested compounds were operated on in an identical manner. In the case of the intact control animals (SHAM), the testicles were similarly extracted and reintroduced delicately to their original location. The site of surgical intervention was then sutured using sterile suture thread, and the site was disinfected again by application of Betadine. Each animal was then kept under a sterile pad until it awoke, before being returned to its cage. The animals were kept in an environment at 22±2° C. with an alternating day/night cycle of 12 hours and ad libitum access to food and drink. The animals were treated with the molecules to be tested from post-surgery day 7 and until day 10 preceding sacrifice (day 11).
The rats were split into groups and treated daily from day 7 to day 10 under the conditions defined below: • 1. SHAM control group: Vehicle (0.5% aqueous methyl cellulose) administered per os. • 2. ORX control group: Vehicle (0.5% aqueous methyl cellulose) administered per os. • 3. Treated ORX group: The tested compounds were administered individually per os in suspension in the vehicle described above, in a dose of 30 mg/kg.
After treatment for 4 successive days, the animals were decapitated using a guillotine. The levator ani and the ventral prostate were removed and weighed individually. For comparing inter-experimental data, the weight of each organ was standardised and expressed in milligrammes per 100 g of the weight of the animal (W). For each organ, the average of the standardised weights of the ORX control group was fixed by definition at 0% and the average of the standardised weights of the SHAM control group was fixed by definition at 100%. The efficacy of each product was expressed as a percentage and calculated using the following formula: (Wtreated−WORX)/(WSHAM−WORX)×100 A subsequent ANOVA test was used for statistical analysis to identify the differences between groups.

[3] = test system: castrated C57/B16J male mice; assay: Model of osteoporosis in male mice (trabecular BMD of tibia); format: in vivo; details: Mus musculus, sc, 672 h, ORX mice, 30 mg/kg subcutaneously daily, day 1 to 28, ORX = 0%, SHAM = 100%, read-out: efficacy in protecting mineral bone density
Procedure: C57/B16J male mice aged 12 weeks and weighing approximately 20-25 g (Charles River, Les Oncins, FRANCE) were operated on as described above with regard to the rats. Castration mimicked the bone loss caused by androgen deficit. The aim of the study is to evaluate the capacity of the compounds to preserve and/or increase the bone mass. This is evaluated by measuring the bone mineral density (BMD). This model has previously been documented by Sims et al. 2003 J. Clin. Invest. 111(9):1319-27.
The animals were separated randomly into various groups and were kept in an environment at 22±2° C. with an alternating day/night cycle of 12 hours and ad libitum access to food and drink.
The tested compounds were administered from post-surgery day 1 and until day 28 preceding sacrifice (day 29). The mice were treated daily under the conditions defined below: • 1. SHAM control group: Vehicle (10/90 ethanol/corn oil mixture) administered subcutaneously. • 2. ORX control group: Vehicle (10/90 ethanol/corn oil mixture) administered subcutaneously. • 3. Treated ORX group: The tested compounds were administered individually subcutaneously in the vehicle described above, in a dose of 30 mg/kg.
During necropsy, the mice were first weighed then decapitated. The two hindlimbs were then carefully disarticulated at the femoral neck. The right hindlimb was frozen at −20° C. Densitometric quantitative analysis was performed on the trabecular portion of the tibia proximal metaphysis using a tomo densitometer (Stratec SA+, Hologic, Norland).
The average of the trabecular BMD of the mice in the ORX control group was defined as 0%. The average of the trabecular BMD of the mice in the SHAM control group was defined as 100%. The efficacy of each product as a percentage was calculated using the formula: (BMDtreated−BMDORX)/(BMDSHAM−BMDORX)×100
A subsequent ANOVA test was used for statistical analysis to identify the differences between groups.

[4] = target: T1, human androgen receptor (hAR) (Homo sapiens, UniProt P10275); assay: Functional response test: hAR transactivation (luciferase reporter) in HALP2 cells; format: cell-based; remark: listed apart in the source
T1 sequence (P10275 1-920): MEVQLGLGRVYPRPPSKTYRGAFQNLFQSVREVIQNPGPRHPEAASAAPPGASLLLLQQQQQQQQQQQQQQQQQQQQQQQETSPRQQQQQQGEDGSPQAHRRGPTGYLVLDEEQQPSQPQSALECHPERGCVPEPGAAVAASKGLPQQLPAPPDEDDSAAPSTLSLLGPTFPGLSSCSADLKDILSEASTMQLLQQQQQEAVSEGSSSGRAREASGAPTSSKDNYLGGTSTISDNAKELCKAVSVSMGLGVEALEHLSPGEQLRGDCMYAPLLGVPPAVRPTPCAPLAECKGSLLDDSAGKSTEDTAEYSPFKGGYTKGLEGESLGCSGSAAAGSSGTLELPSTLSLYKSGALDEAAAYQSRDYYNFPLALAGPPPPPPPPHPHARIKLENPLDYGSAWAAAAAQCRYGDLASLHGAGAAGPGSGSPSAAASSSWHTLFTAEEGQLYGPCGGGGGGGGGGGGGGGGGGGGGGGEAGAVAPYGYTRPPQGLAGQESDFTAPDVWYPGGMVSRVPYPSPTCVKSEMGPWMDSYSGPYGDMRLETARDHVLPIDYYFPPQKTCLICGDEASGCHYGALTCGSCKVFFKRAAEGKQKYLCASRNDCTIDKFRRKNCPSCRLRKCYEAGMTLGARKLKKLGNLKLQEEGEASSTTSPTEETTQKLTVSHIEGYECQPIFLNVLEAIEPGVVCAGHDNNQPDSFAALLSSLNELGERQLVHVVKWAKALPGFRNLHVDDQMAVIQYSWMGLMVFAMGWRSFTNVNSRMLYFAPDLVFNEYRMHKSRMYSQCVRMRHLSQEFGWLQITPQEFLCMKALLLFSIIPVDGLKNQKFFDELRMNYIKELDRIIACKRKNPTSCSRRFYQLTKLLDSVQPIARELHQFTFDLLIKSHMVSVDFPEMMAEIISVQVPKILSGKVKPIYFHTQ
In short: as §1

EC50 [1] [nM]	Structure (SMILES)	inhibition in vivo at 30 mg/kg ([2]; read-out: anabolic protection efficacy with regard to levator ani) [%]	inhibition in vivo at 30 mg/kg ([2]; read-out: androgenic efficacy with regard to the prostate) [%]	inhibition in vivo at 30 mg/kg [3] [%]	KSchild (nM) potency [4] [nM]
8	CC1(c2ccc(O)cc2)C(=O)N(c2ccc(Cl)c(Cl)c2)C(=O)N1CCF (stereo not drawn)	–	–	–	–
–	Cc1c(N2C(=O)N(C)C(C)(c3ccc(O)cc3)C2=O)ccc(C#N)c1Cl (stereo not drawn) [Example 8, 2-chloro-4-[3,4-dimethyl-2,5-dioxo-4-(4-hydroxyphenyl)imidazolidin-1-yl]-3-methylbenzonitrile]	50 to 140	5 to 70	40 to 130	–
–	C=CCN1C(=S)N(c2ccc(C#N)c(C(F)(F)F)c2)C(=O)C1(C)c1ccc(O)cc1 (stereo not drawn) [Example 7, 4-[4-(4-hydroxyphenyl)-4-methyl-5-oxo-3-(2-propenyl)-2-thioxoimidazolidin-1-yl]-2-trifluoromethylbenzonitrile]	–	–	40 to 130	3.46
